In assay [1] the target is Glutamate receptor ionotropic, AMPA (Rattus norvegicus, UniProt P19490+P19491+P19492+P19493).
Assay [2] is filed under the species Rattus norvegicus. The settings on record: dose 3 mg/kg; route intravenous.
Description: Change in systolic blood pressure before and after intravenous administration of 3 mg/kg dose in rats
A short description of assay [3]: Inhibitory activity against [Ca(2+)]-impermeable Ionotropic glutamate receptor AMPA was determined. Particulars: concentration not given here.
The target of assay [4] is Glutamate receptor ionotropic, AMPA (Rattus norvegicus) (UniProt P19491+P19492+P19493+P19490). The assay can be described thus: Antagonistic activity against Ca++permeable Ionotropic glutamate receptor AMPA as concentration of compound that reduces the inward current induced by kainate by 50% in Xenopus oocytes. The assay is classed as functional, cell-based. Particulars: Oocyte; concentration not given here.

For the compound `CCCNCCCCNCC1CCN(C(=O)Cc2cccc3ccccc23)CC1`, the IC50 in assay [1] turned out to be 740 nM. For the same compound, the “Delta SBP” value in assay [2] is 9 mmHg.

Regarding `CN(C)CCCCNCC1CCN(C(=O)Cc2cccc3ccccc23)CC1`, it took 530 nM to reach half-maximal inhibition in assay [1] (IC50). Besides, the “Delta SBP” value in assay [2] is 12 mmHg.

On to `O=C(Cc1cccc2ccccc12)N1CCC(CNCCCCNCCN2CCCCC2)CC1`, for which the “Delta SBP” value in assay [2] came out at 5 mmHg.

Turning to `CC(C)NCCCCNCC1CCN(C(=O)Cc2cccc3ccccc23)CC1`, the IC50 in assay [1] came out at 730 nM. Besides, the “Delta SBP” value in assay [2] worked out at 10 mmHg.

Regarding `O=C(Cc1cccc2ccccc12)N1CCC(CNCCCCN2CCCCC2)CC1`, in assay [1], it took 390 nM to reach half-maximal inhibition (IC50). Also, the “Delta SBP” value in assay [2] came to 4 mmHg.

In assay [3], `O=C(Cc1cccc2ccccc12)N1CCC(CNCCCCNCC2CCCCC2)CC1` returned an inhibition of 4.4%. In assay [1], this compound registered an IC50 of 250 nM. Besides, the “Delta SBP” value in assay [2] was determined as 11 mmHg.

The compound `O=C(Cc1cccc2ccccc12)N1CCC(CNCCCCNCCCO)CC1` had an inhibition in assay [4] of 44%. In assay [2], the “Delta SBP” value is -6 mmHg.

For `O=C(Cc1cccc2ccccc12)N1CCC(CNCCCCNCC2CCOCC2)CC1`, the inhibition in assay [4] worked out at 35%. Also, the “Delta SBP” value in assay [2] is listed as -22 mmHg.

In the case of `O=C(Cc1cccc2ccccc12)N1CCC(CNCCCCCCC2CCCCC2)CC1`, the inhibition in assay [4] stood at 1%. Moreover, the “Delta SBP” value in assay [2] is -50 mmHg.

In assay [4], `NCCCCNCC1CCN(C(=O)Cc2cccc3ccccc23)CC1` gave an inhibition of 54%. In addition, in assay [2], the “Delta SBP” value is on record as -53 mmHg.

For `O=C(Cc1cccc2ccccc12)N1CCC(CCCCCCNCC2CCCCC2)CC1`, the inhibition in assay [4] was determined as 42%. In addition, the “Delta SBP” value in assay [2] is given as -35 mmHg.

In assay [1], `CC(C)CNCCCCNCC1CCN(C(=O)Cc2cccc3ccccc23)CC1` displayed an IC50 of 790 nM. Also, the “Delta SBP” value in assay [2] was found to be 7 mmHg.

Broadly, the IC50 is the concentration needed to halve the response being measured. A higher IC50 goes with lower potency. One may read the inhibition as the share of the control response that was lost under treatment. High values mean strong suppression, low ones little suppression.

These data come from ChEMBL document CHEMBL1133985, “Synthesis of diaminobutane derivatives as potent Ca(2+)-permeable AMPA receptor antagonists” (Bioorg Med Chem Lett, 2001).
